Assay results taken from US8207134B2, “Fused ring spiroketal derivative and use thereof as anti-diabetic drug” (Chugai Seiyaku Kabushiki Kaisha, priority 2006, dated 2012).

Target: T1, human SGLT2 (Homo sapiens, UniProt P31639)
T1 construct: expressed in transfected cells; host or cells: CHO-K1
T1 sequence (P31639 1-672): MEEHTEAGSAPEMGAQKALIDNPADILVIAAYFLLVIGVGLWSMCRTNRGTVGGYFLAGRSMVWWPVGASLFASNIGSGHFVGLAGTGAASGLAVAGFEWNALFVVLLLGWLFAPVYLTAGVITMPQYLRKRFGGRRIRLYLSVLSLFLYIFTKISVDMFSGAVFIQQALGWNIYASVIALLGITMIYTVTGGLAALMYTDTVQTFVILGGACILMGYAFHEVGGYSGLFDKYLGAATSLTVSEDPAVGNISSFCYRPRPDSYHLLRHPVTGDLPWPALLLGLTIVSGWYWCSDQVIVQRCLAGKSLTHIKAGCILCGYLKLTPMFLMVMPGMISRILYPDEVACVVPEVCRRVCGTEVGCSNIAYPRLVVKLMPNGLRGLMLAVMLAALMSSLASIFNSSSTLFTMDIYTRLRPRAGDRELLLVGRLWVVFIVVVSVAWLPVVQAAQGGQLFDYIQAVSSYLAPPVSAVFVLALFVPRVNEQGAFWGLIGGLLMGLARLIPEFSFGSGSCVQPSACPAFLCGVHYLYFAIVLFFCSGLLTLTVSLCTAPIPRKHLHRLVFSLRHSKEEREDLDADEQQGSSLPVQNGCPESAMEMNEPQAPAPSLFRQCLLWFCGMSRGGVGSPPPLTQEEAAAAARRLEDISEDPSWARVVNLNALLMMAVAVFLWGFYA
Experiment: Inhibitory activity against methyl-α-D-glucopyranoside uptake of human Na+-glucose cotransporter SGLT2
Format: cell-based
Details: CHO-K1 cells stably expressing human SGLT2; methyl-α-D-(U-14C)glucopyranoside uptake, 37° C. for 45 minutes; read-out: Ic50 value (inhibition of SGLT2)
Source text: Evaluation of Inhibitory Activity Against Methyl-α-D-Glucopyranoside Uptake of Human Na^+-Glucose Cotransporter (SGLT1 and SGLT2)
2) Construction of Human SGLT2 Expression Vector
Human SGLT2 cDNA was amplified by PCR with a cDNA library derived from human kidney (Clontech) as a template, synthetic DNA primers and KOD+ DNA Polymerase. The amplified cDNA was inserted into pcRII-Topo vector by using a Topo TA Cloning Dual Promoter kit. E. coli competent cells (TPO10) were transformed with the plasmid vector, cultured in LB medium containing ampicillin (50 mg/L) to grow ampicillin-resistant clones. The plasmid vector containing human SGLT2 cDNA was purified from the clone in a standard manner. Human SGLT2 cDNA added restriction enzyme recognition sites (Xho I at 5′-end, Hind III at 3′-end) was amplified by PCR with the plasmid vector as a template, synthetic DNA primers containing an additional restriction enzyme recognition site and KOD+ DNA Polymerase. This amplified cDNA was digested with Xho I and Hind III, and ligated into expression vector pcDNA3.1(−) digested with Xho I and Hind III by using a Rapid DNA Ligation kit. E. coli competent cells (DH5α) were transformed with the ligated expression vector and grown in ampicillin-containing LB medium. Human SGLT2 expression vector was purified from the ampicillin-resistant clone in a standard manner.
3) Establishment of Cell Lines Stably Expressing Human SGLT1 or Human SGLT2
The human SGLT1 expression vector or the human SGLT2 expression vector was digested with the restriction enzyme Pvu I and transfected into CHO-Kl cells with FuGENE (Roche Diagonostics). After the transfection, the cells were cultured at 37° C. in the presence of 5% CO2 for about 3 weeks in DMEM medium (Gibco) containing penicillin (50 U/mL, SIGMA), streptomycin (50 mg/L, SIGMA), geneticin (200 mg/L, Nacalai Tesque, Inc., Japan) and 20% fetal bovine serum to obtain geneticin-resistant clones. […]

Row | Structure (SMILES) | IC50
1 | CCc1ccc(Cc2csc3cc4c(cc23)[C@]2(OC4)O[C@H](CO)[C@@H](O)[C@H](O)[C@H]2O)cc1 [Example 1, (3′R,4′S,5S,5′S,6′R)-3-[(4-ethylphenyl)methyl]-6′-(hydroxymethyl)-3′,4′,5′,6′-tetrahydro-spiro[thieno[2,3,f]isobenzofuran-5(7H),2′-[2H]pyran]-3′,4′,5′-triol] | 3.9 nM
2 | CCc1ccc(Cn2ccc3cc4c(cc32)[C@]2(OC4)O[C@H](CO)[C@@H](O)[C@H](O)[C@H]2O)cc1 [Example 2, (3′R,4′S,5′S,6′R,7S)-1-[(4-ethylphenyl)methyl]-6′-hydroxymethyl-3′,4,5′,6′-tetrahydro-spiro[furo[3,4,f]indole-7(5H),2′-[2H]pyran]-3′,4′,5′-triol] | 2 nM
3 | CCc1ccc(Cc2cccc3c4c(sc23)C2(OCC4)O[C@H](CO)[C@@H](O)[C@H](O)[C@H]2O)cc1 (stereo in doubt) [Example 3, (1S,3′R,4′S,5′S,6′R)-8-[(4-ethylphenyl)methyl]-3,3′,4,4′,5′,6′-hexahydro-6′-hydroxymethyl-spiro[2-oxa-9-thia-fluorene-1,2′-[2H]pyran]-3′,4′,5′-triol] | 5.1 nM
